Assay results as given in PubChem BioAssay (NCI).
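Method: 48-hour compound exposure of cells in 96-well plates, five concentrations, linear interpolation of endpoints. GI50 = concentration required for 50% inhibition of growth. TGI: total growth inhibition.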 Where a SMILES comes first, the peptide text is derived from it. The star is where a group is joined. Boc = CC(C)(C)OC(=O)*

Legend:
Test in all cases: DTP human tumour cell line panel, 48 h
MDA-MB-231 breast = tested on: MDA-MB-231 breast
NCI/ADR-RES ovarian = tested on: NCI/ADR-RES ovarian
MDA-N = tested on: MDA-N
OVCAR-5 ovarian = tested on: OVCAR-5 ovarian
NCI-H522 lung = tested on: NCI-H522 lung
OVCAR-8 ovarian = tested on: OVCAR-8 ovarian
HOP-62 NSCLC = tested on: HOP-62 NSCLC
IGROV1 ovarian = tested on: IGROV1 ovarian
RXF 393 renal = tested on: RXF 393 renal
CAKI-1 renal = tested on: CAKI-1 renal
HOP-92 NSCLC = tested on: HOP-92 NSCLC

Row | SMILES | TGI (MDA-MB-231 breast) [µM] | TGI (NCI/ADR-RES ovarian) [µM] | TGI (MDA-N) [µM] | TGI (OVCAR-5 ovarian) [µM] | TGI (NCI-H522 lung) [µM] | TGI (OVCAR-8 ovarian) [µM] | TGI (HOP-62 NSCLC) [µM] | TGI (IGROV1 ovarian) [µM] | TGI (RXF 393 renal) [µM] | TGI (CAKI-1 renal) [µM] | TGI (HOP-92 NSCLC) [µM] | GI50 (NCI-H522 lung) [µM] | GI50 (HOP-92 NSCLC) [µM] | GI50 (OVCAR-8 ovarian) [µM] | GI50 (IGROV1 ovarian) [µM] | GI50 (CAKI-1 renal) [µM]
1 | S=C1CC(c2ccc(Cl)cc2)Sc2ccccc2N1 (stereo not drawn) | > 100 | > 100 | > 100 | > 100 | > 100 | > 100 | 35.1 | > 100 | 48.6 | > 100 | – | – | – | – | – | –
2 | Cc1nc2ccccc2n1CCc1nc2ccccc2s1 | > 100 | > 100 | > 100 | > 100 | > 100 | > 100 | > 100 | > 100 | > 100 | > 100 | > 100 | – | – | – | – | –
3 | COc1ccc(CNc2nc3ccccc3nc2-c2cccs2)cc1 | > 100 | > 100 | – | > 100 | > 100 | > 100 | > 100 | > 100 | > 100 | 46.3 | > 100 | – | – | – | – | –
4 | O=c1[nH]cnc2c1ncn2[C@H]1CO[C@@H](CO)[C@@H]1O | > 100 | > 100 | > 100 | > 100 | > 100 | – | > 100 | > 100 | > 100 | > 100 | > 100 | – | – | – | – | –
5 | NS(=O)(=O)c1ccc(/C=C/c2cccc(O)c2)cc1 | > 100 | > 100 | > 100 | > 100 | 44.4 | 58.7 | > 100 | > 100 | > 100 | > 100 | 65.9 | 12.2 | 17.4 | 25.2 | 30.2 | 50.2
6 | O=C1CC(c2cccc(Cl)c2)n2cccc21 (stereo not drawn) | > 100 | > 100 | – | > 100 | – | > 100 | > 100 | – | > 100 | > 100 | > 100 | – | – | – | – | –
7 | COc1cc2c(cc1OCCCC(=O)Nc1cc(C(=O)Nc3cc(C(=O)NCCCN(C)C)n(C)n3)n(C)n1)N=CC1CCCN1C2=O (stereo not drawn) | 39.5 | 57.3 | 31.6 | 37.7 | 20.2 | 53.2 | 68.7 | 28.2 | 33.6 | 31.2 | 33.2 | – | – | – | – | –
8 | CC(=O)Nc1ccc(Nc2nc(=O)[nH]c(=O)[nH]2)cc1 | > 100 | > 100 | > 100 | > 100 | > 100 | > 100 | > 100 | > 100 | – | > 100 | > 100 | – | – | – | – | –
9 | Clc1ccc(-c2nc(-c3ccc(Cl)cc3)[s+]s2)cc1 | > 100 | > 100 | > 100 | > 100 | > 100 | > 100 | > 100 | > 100 | > 100 | > 100 | – | – | – | – | – | –
10 | Cc1nn(-c2ccccc2)c(C)c1/C=N/NC(=O)c1sc(=S)n(-c2ccccc2)c1N | 7.78 | > 100 | > 100 | > 100 | – | > 100 | > 100 | 1.79 | 4.36 | 7.53 | – | – | – | – | – | –
11 | O=C(c1ccco1)N(C(=S)N1CCN(c2ccccc2)CC1)c1ccccc1 | – | – | – | > 100 | > 100 | > 100 | > 100 | > 100 | > 100 | > 100 | > 100 | – | – | – | – | –
12 | CC1(C)CCOC(=O)C(Cl)CC1Cl (stereo not drawn) | > 100 | > 100 | > 100 | > 100 | > 100 | > 100 | > 100 | > 100 | > 100 | > 100 | – | – | – | – | – | –
13 | Clc1ccc(OCc2nnc(CCCCCCCCc3nnc(COc4ccc(Cl)cc4Cl)o3)o2)c(Cl)c1 | > 100 | > 100 | > 100 | > 100 | > 100 | – | – | > 100 | > 100 | 53.4 | > 100 | – | – | – | – | –
14 | CC(NC(=O)C(NC(=O)OC(C)(C)C)C(C)C)C(=O)NCC(=O)O (stereo not drawn) (Boc-Val-Ala-Gly-OH; configuration not given here) | – | > 100 | > 100 | > 100 | > 100 | > 100 | > 100 | > 100 | > 100 | > 100 | > 100 | – | – | – | – | –
15 | Fc1cccc2nc(-c3ccccc3)cc(OCc3ccccc3)c12 | > 100 | > 100 | > 100 | > 100 | > 100 | > 100 | > 100 | > 100 | > 100 | – | – | – | – | – | – | –
16 | O=[N+]([O-])C(=C(NCc1ccccc1)NCc1ccccc1)C(Cl)=C(Cl)Cl | 81.2 | > 100 | 74.7 | – | 79.1 | > 100 | > 100 | > 100 | 98.4 | 55.6 | > 100 | – | – | – | – | –
17 | COc1cc(C(C#N)NNC(=O)c2ccccc2O)ccc1O (stereo not drawn) | – | – | – | > 100 | 28.7 | > 100 | > 100 | > 100 | 6.3 | > 100 | 97.3 | – | – | – | – | –
18 | O=S1(=O)c2ccccc2N2CCCc3cc(Cl)cc1c32 | > 100 | > 100 | > 100 | > 100 | – | > 100 | > 100 | > 100 | 51.3 | > 100 | – | – | – | – | – | –
19 | Nc1cc(CO)cc(Nc2c3ccccc3nc3occc23)c1 | > 100 | 62.6 | > 100 | > 100 | 39.9 | > 100 | > 100 | 90.8 | – | 94.9 | > 100 | – | – | – | – | –
20 | Cc1ccc(-n2c(C)nc3c2C(=O)c2ccccc2C3=O)cc1 | – | – | – | – | > 100 | > 100 | > 100 | > 100 | > 100 | – | > 100 | – | – | – | – | –
21 | CC1=C(C#N)S(=O)(=O)c2c(oc(C)c2C)N1 | > 100 | > 100 | > 100 | > 100 | > 100 | > 100 | > 100 | – | – | > 100 | > 100 | – | – | – | – | –
